From patent publication US20240165196A1, “Beta-Lactamase Inhibitors” (VIB VZW, priority 2021, published 2024)

Assays:
Type in all cases: cell-based
[1] = system: E. coli K12 MG1655 overexpressing GFP; test: Structured Illumination Microscopy of bacterial strains stably expressing GFP or FP fusions; conditions: strains expressing GFP or proteins fused to FPs, treated with TEM3.2
Method: FIGS. 3A-3P. […] Three replicates are shown for each condition. […] A single representative image is shown. […] Three replicates are shown for each condition. (FIG. 3E) [Left] […] [Middle] […] [Right] […] A single representative image is shown. […] A single representative image is shown. […] A single representative image is shown. […] A single representative blot is shown. […] 106 cells were analysed for the plot.
Moreover, we confirmed the presence of the protein in the correct band using mass spectrometry proteomics. We repeated this with a strain expressing SHV-154, blotting with a polyclonal rabbit antibody raised against the recombinant SHV enzyme described above (FIG. 3K).
Bacteria were fixed by adding 2.5% paraformaldehyde and 0.04% glutaraldehyde (final concentrations) to the culture media, followed by incubation at room temperature for 15 mins and 30 mins on ice. Bacteria were then washed in PBS and resuspended in GTE buffer (50 mM glucose, 25 mM Tris, and 10 mM EDTA, pH 8.0). Directly preceding microscopic analysis, cells were transferred to a glass slide and covered with a coverslip. Imaging was performed using a Zeiss Elyra S.1 system in the LiMoNe Light microscopy facility of VIB-KU Leuven.

[2] = system: E. coli clinical isolate, β-lactamase SHV-2; CTX-M-55; VIM-1; test: MIC of ampicillin without/with 30 μg/mL TEM3.2, clinical isolates; conditions: isolate 2017 Turkey, UTI, Urine
Method: (§1) Moreover, the core sequence of peptide TEM3.0 also occurs in the structurally related SHV β-lactamase (FIG. 2E). Although the C-terminal extension residues H and N have been replaced with physicochemically similar R and Q, respectively (FIG. 2H). […] To quantify the synergy between these four peptides and penicillin G, we performed a so-called checkerboard assay, which allows to compare the activity of two test compounds co-incubated (here peptide and a beta-lactam antibiotic), to their individual activities in isolation. The result from the assay is quantified as the Fractional Inhibitory Concentration Index (FICI), and it is generally accepted that values below 0.5 indicate synergistic effects between the compounds. As a control, we generated a peptide using the same design, but based on a previously identified APR from the β-galactosidase enzyme (BGAL)^16 from E. coli (APR=SVIIWSL, peptide sequence=[…]) that has a MIC value>100 μg/mL on E. coli strain UZ_TEM104. We evaluated the synergy of the peptides with penicillin G in clinical E. coli isolates carrying the TEM (FIG. 2I) or SHV enzymes (FIG. 2J). […] As a further control, we also performed a checkerboard assay with an E. coli strain that was resistant to the aminoglycoside kanamycin and observed no synergy between this unrelated antibiotic and our peptides (FIG. 2L), in line with the notion that we are inhibiting a beta-lactamase but not the aminoglycoside degrading enzyme. […] The list of strains included some that harbored only TEM or SHV, but others contained additional Ambler Class A (CTX-M or OXA) or Class B (VIM and NDM) beta-lactamases. […] In contrast, the presence of the NDM-type […], that does have a high affinity for Ampicillin and that is completely distinct in sequence and structure from TEM and SHV, seemed to completely prevent the effect of the peptide on the beta-lactam sensitivity of the strains in which it occurred (see also further). As it appeared that TEM3.2 had activity in most isolates tested, we decided to focus further analysis on this peptide. Furthermore, we tested the performance of the TEM3.2 peptide in a checkerboard assay on strains carrying ESBL mutants of TEM, i.e. extended-spectrum mutations that cluster around the active site of the enzyme, and not in the aggregation prone region targeted by the peptide, and as expected from our mode of action, we observed synergy with ampicillin on these strains (FIG. 2M).
(§2) Determination of MIC values using the broth microdilution in the 96-well plate (BD Biosciences, Belgium) according to the EUCAST guideline, which was performed in 96-well polystyrene flat bottom microtiter plates (BD Biosciences). Briefly, a single colony was inoculated into 5 mL Difco™ Mueller Hinton Broth (BD Biosciences Ref 275730) and grown to the end-exponential growth phase in a shaking incubator at 37° C. Cultures were subsequently diluted to an MacFarland (0.5 optical density) then the culture was diluted to reach 10^6 CFU/mL in fresh MHB medium. 50 μl of different concentration of peptides ranging from 128 to 2 μg/mL were serially diluted to the sterile 96-well plate in MHB. 50 μL of the diluted bacteria in MHB were pipetted into 96-well plates to reach the final volume of 100 μL. The bacteria grown with the maximum concentration of carrier and medium were considered as positive and negative controls, respectively. The plates were statically incubated overnight at 37° C. to allow bacterial growth. OD was measured at 590 nm a multipurpose ultraviolet-visible plate reader, and the absorbance of the growth bacteria was measured using absorbance reader. Bacterial growth was also visually inspected and agreed well with the OD reading.

[3] = system: E. coli clinical isolate, β-lactamase SHV-12; TEM-ESBL; test: as above; conditions: isolate 2017 Germany, RTI, Bronchi
Method: as §1, §2

[4] = system: E. coli clinical isolate, β-lactamase TEM-ESBL; test: as above
Method: as §1, §2

[5] = system: E. coli clinical isolate, β-lactamase TEM-ESBL; CTX-M-15; NDM-5; test: as above; conditions: isolate 2017 Qatar, UTI, Urine
Method: as §1, §2

[6] = system: E. coli clinical isolate, β-lactamase TEM-ESBL; CTX-M-TYPE; test: as above; conditions: isolate 2017 France, IAI, Peritoneal Fluid
Method: as §1, §2

[7] = system: E. coli clinical isolate, β-lactamase TEM-1; test: as above; conditions: isolates year NA, country NA
Method: as §1, §2

[8] = system: E. coli clinical isolate, β-lactamase TEM-ESBL; CTX-M-15; NDM-19; test: as above; conditions: isolate 2017 Qatar, IAI, Abscess
Method: as §1, §2

[9] = system: E. coli clinical isolate, β-lactamase TEM-ESBL; CTX-M-24; OXA-48; test: as above; conditions: isolate 2017 Turkey, IAI, Abscess
Method: as §1, §2

[10] = system: E. coli clinical isolate, β-lactamase TEM-ESBL; CTX-M-27; test: as above; conditions: isolate 2017 Romania, UTI, Urine
Method: as §1, §2

## Ac-RLTAFLHNRRPRLTAFLRQRR-NH2 [TEM3.2]
[1]
  induced aggregation of fluorescent proteins: did not observe any induced aggregation
[2]
  MIC ampicillin + 30 μg/mL TEM-3.2: ≤0.06
[3]
  MIC ampicillin + 30 μg/mL TEM-3.2: 0.12
[4]; isolate 2016 Germany, UTI, Urine
  MIC ampicillin + 30 μg/mL TEM-3.2: ≤0.06
[4]; isolate 2016 Lithuania, UTI, Urine
  MIC ampicillin + 30 μg/mL TEM-3.2: 1
[4]; isolate 2017 Israel, UTI, Urine
  MIC ampicillin + 30 μg/mL TEM-3.2: ≤0.06
[4]; isolate 2017 Portugal, RTI, Bronchi
  MIC ampicillin + 30 μg/mL TEM-3.2: 0.5
[4]; isolates 2016 South Africa, IAI, Peritoneal Fluid
  MIC ampicillin + 30 μg/mL TEM-3.2: ≤0.06
[5]
  MIC ampicillin + 30 μg/mL TEM-3.2: >64
[6]
  MIC ampicillin + 30 μg/mL TEM-3.2: ≤0.06
[7]
  MIC ampicillin + 30 μg/mL TEM-3.2: ≤0.06
[8]
  MIC ampicillin + 30 μg/mL TEM-3.2: >64
[9]
  MIC ampicillin + 30 μg/mL TEM-3.2: ≤0.06
[10]
  MIC ampicillin + 30 μg/mL TEM-3.2: ≤0.06
